Values after ≈ are worked out from the molar mass of the structure shown.
Legend:
[1] = cited from earlier work
[2] = cited from earlier work; remark: listed apart in the source
[3] = dissolution in aqueous solution by adjusting the pH; format: physicochemical; conditions: pH of the aqueous solution adjusted to ~6.6 (6.5-6.7) or less
Text: The natural pH of tear fluid is 7.4; however, discomfort for the user will not be felt as long as the pH of the administered medication stays in the range of 6.6-7.8 (Sampath Kumar et al., “Recent Challenges and Advances in Ophthalmic Drug Delivery System,” in The Pharma Innovation, Vol. 1, No. 4 (2012)). Others administer eye drops at a pH of 5.5 and find this pH to be optimal.

## OCCN(CCO)c1nc(N2CCCCC2)c2nc(N(CCO)CCO)nc(N3CCCCC3)c2n1 [Dipyridamole, dipyridamole]
[1]
  solubility in methanol: very soluble
[2]; Meylan, W M ET AL. (1996)
  water solubility: 8.17 µg/mL (≈ 16.2 µM)
[2]; water
  solubility in water: practically insoluble
[3]
  dissolution in the aqueous solution: fully dissolves
